# Counter-ions that a name gives are not always drawn. Like-named read-outs stand apart in the source and are kept apart here.
# Experiments:
# [1] = Description: After removing the supernatant, the complex was dissolved in methanol, transferred to a new glass vial and the solvent was dried under a gentle nitrogen flow. […] ICell was proportionally added to a vial containing Abaloparatide in its native form to achieve a final Abaloparatide concentration of 1 mg/g. Abaloparatide-HIP complexes were pre-dissolved in DMSO (corresponding to 5% weight of the final formulation), followed by the proportional addition of ICell to obtain a final Abaloparatide concentration of 1 mg/g.
# S. aureus strain S54F9 = test: Microbiological assay, Disc Diffusion Assay; assay type: cell-based, Staphylococcus aureus; details: Example 24, wells: 0.5 mg linoleic acid in DMSO; 0.5 mg vancomycin hydrochloride; 45 µl HIP complex + 45 µl PBS; 24 hours at 37 °C
# Description: Then, 3 wells were carved out with the use of the broad side of an autoclaved 1 ml pipette tip.
# This setup was repeated for three experimental replicates. Each plate was incubated for 24 hours at 37 °C, before inspection.
# Then, 3 wells were carved out with the use of the broad side of an autoclaved 1 ml pipette tip. In one well, 0.5 mg linoleic acid was injected as 90 µl 0.22 µm-sterile-filtered dimethyl sulfoxide. In a second well, 90 µl autoclaved phosphate-buffered saline with 0.5 mg vancomycin hydrochloride was injected. […] The plate was incubated for 24 hours at 37 °C, before inspection.
# [2] = SuBen:GTH:DMSO (60:15:25) ICell, visual
SMILES,solubility in ICell [1],antimicrobial activity (clearance of S. aureus) (S. aureus strain S54F9),solubility in ICell [2]
CC[C@H](C)[C@H](NC(=O)[C@H](CO)NC(=O)[C@H](CCCCN)NC(=O)CNC(=O)[C@H](CCCCN)NC(=O)[C@H](CC(=O)O)NC(=O)[C@H](Cc1cnc[nH]1)NC(=O)[C@H](CC(C)C)NC(=O)[C@H](CC(C)C)NC(=O)[C@H](CCC(N)=O)NC(=O)[C@H](Cc1cnc[nH]1)NC(=O)[C@H](CCC(=O)O)NC(=O)[C@H](CO)NC(=O)[C@@H](NC(=O)[C@H](C)N)C(C)C)C(=O)N[C@@H](CCC(N)=O)C(=O)N[C@@H](CC(=O)O)C(=O)N[C@@H](CC(C)C)C(=O)N[C@@H](CCCNC(=N)N)C(=O)N[C@@H](CCCNC(=N)N)C(=O)N[C@@H](CCCNC(=N)N)C(=O)N[C@@H](CCC(=O)O)C(=O)N[C@@H](CC(C)C)C(=O)N[C@@H](CC(C)C)C(=O)N[C@@H](CCC(=O)O)C(=O)N[C@@H](CCCCN)C(=O)N[C@@H](CC(C)C)C(=O)N[C@@H](CC(C)C)C(=O)NC(C)(C)C(=O)N[C@@H](CCCCN)C(=O)N[C@@H](CC(C)C)C(=O)N[C@@H](Cc1cnc[nH]1)C(=O)N[C@H](C(=O)N[C@@H](C)C(N)=O)[C@@H](C)O [Abaloparatide],insoluble,,
CN[C@H](CC(C)C)C(=O)N[C@H]1C(=O)N[C@@H](CC(N)=O)C(=O)N[C@H]2C(=O)N[C@H]3C(=O)N[C@H](C(=O)N[C@H](C(=O)O)c4cc(O)cc(O)c4-c4cc3ccc4O)[C@H](O)c3ccc(c(Cl)c3)Oc3cc2cc(c3O[C@@H]2O[C@H](CO)[C@@H](O)[C@H](O)[C@H]2O[C@H]2C[C@](C)(N)[C@H](O)[C@H](C)O2)Oc2ccc(cc2Cl)[C@H]1O [Vancomycin hydrochloride],,clearance of S. aureus bacteria,not dissolvable

# Source: EP4282435A1, “FORMULATIONS OF ACTIVE PHARMACEUTICAL INGREDIENTS AND EXCIPIENTS IN ICELLS VIA HYDROPHOBIC ION PAIRING” (Danmarks Tekniske Universitet, priority 2022, dated 2023)
